Source: ChEMBL document CHEMBL1201862, “PubChem BioAssay data set” (2004)
Active and inactive are the calls of the source.

Assays:
[1] = Luminescence-based cell-based high throughput dose response assay to identify activators of the DAF-12 from the parasite S. stercoralis (ssDAF-12).; type: functional
[2] = target: T1, Nuclear receptor subfamily 0 group B member 1 (Homo sapiens, UniProt P51843); type: functional, cell-based;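 further: HEK293T cells transfected with SF-1 and DAX-1 plus StAR promoter luciferase reporter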
T1 sequence (P51843 whole entry): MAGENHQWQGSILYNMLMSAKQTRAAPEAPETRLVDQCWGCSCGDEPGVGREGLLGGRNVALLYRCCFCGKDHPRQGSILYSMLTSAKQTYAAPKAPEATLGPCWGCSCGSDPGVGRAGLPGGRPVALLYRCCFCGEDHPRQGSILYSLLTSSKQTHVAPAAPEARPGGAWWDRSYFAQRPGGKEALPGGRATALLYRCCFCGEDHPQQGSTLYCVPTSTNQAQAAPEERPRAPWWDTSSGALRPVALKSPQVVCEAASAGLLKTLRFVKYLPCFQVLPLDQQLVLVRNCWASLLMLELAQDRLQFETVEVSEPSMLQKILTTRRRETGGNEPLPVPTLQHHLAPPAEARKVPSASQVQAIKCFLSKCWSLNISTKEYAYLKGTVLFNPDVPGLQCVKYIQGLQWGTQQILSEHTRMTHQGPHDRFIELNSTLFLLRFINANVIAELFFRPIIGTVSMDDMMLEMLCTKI

[3] = target: Lymphokine-activated killer T-cell-originated protein kinase (Homo sapiens, UniProt Q96KB5); type: functional;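 further: value comes from a kinase panel screen in which TOPK was one of the panel members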
[4] = target: Macrophage colony-stimulating factor 1 receptor (Homo sapiens, UniProt P07333); type: functional;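 further: value comes from the Navigating the Kinome screening panel, CSF1R member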
[5] = target: Casein kinase I isoform delta (Homo sapiens, UniProt P48730); type: functional;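 further: measured as one member (CSNK1D) of a kinome panel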
[6] = target: Tyrosine-protein kinase Srms (Homo sapiens, UniProt Q9H3Y6); type: functional;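 further: SRMS measured as one member of a kinome-wide kinase profiling panel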
[7] = target: Tyrosine-protein kinase JAK3 (Homo sapiens, UniProt P52333); type: functional
[8] = target: Glycogen synthase kinase-3 beta (Homo sapiens, UniProt P49841); type: functional;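 further: value comes from a broad kinome profiling panel, with GSK3B as the panel member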
[9] = target: Serine/threonine-protein kinase PAK 4 (Homo sapiens, UniProt O96013); type: functional;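 further: value obtained within a kinome profiling panel in which PAK4 was one of the panel members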
[10] = target: Delta-type opioid receptor (Homo sapiens, UniProt P41143); assay: HTS Image-Based Screen for Antagonists of the DOR Receptor. [Related pubchem assays (depositor defined):AID1777, AID1785, AID1786, AID2133]; type: functional;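 further: U2OS cells expressing DOR stimulated with 100 nM SNC80 agonist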
HEK293 = assay: cells; type: functional, cell-based; conditions: Homo sapiens
[11] = target: T2, Histone-lysine N-methyltransferase NSD2 (Homo sapiens, UniProt O96028); type: biochemical
T2 sequence (O96028 whole entry): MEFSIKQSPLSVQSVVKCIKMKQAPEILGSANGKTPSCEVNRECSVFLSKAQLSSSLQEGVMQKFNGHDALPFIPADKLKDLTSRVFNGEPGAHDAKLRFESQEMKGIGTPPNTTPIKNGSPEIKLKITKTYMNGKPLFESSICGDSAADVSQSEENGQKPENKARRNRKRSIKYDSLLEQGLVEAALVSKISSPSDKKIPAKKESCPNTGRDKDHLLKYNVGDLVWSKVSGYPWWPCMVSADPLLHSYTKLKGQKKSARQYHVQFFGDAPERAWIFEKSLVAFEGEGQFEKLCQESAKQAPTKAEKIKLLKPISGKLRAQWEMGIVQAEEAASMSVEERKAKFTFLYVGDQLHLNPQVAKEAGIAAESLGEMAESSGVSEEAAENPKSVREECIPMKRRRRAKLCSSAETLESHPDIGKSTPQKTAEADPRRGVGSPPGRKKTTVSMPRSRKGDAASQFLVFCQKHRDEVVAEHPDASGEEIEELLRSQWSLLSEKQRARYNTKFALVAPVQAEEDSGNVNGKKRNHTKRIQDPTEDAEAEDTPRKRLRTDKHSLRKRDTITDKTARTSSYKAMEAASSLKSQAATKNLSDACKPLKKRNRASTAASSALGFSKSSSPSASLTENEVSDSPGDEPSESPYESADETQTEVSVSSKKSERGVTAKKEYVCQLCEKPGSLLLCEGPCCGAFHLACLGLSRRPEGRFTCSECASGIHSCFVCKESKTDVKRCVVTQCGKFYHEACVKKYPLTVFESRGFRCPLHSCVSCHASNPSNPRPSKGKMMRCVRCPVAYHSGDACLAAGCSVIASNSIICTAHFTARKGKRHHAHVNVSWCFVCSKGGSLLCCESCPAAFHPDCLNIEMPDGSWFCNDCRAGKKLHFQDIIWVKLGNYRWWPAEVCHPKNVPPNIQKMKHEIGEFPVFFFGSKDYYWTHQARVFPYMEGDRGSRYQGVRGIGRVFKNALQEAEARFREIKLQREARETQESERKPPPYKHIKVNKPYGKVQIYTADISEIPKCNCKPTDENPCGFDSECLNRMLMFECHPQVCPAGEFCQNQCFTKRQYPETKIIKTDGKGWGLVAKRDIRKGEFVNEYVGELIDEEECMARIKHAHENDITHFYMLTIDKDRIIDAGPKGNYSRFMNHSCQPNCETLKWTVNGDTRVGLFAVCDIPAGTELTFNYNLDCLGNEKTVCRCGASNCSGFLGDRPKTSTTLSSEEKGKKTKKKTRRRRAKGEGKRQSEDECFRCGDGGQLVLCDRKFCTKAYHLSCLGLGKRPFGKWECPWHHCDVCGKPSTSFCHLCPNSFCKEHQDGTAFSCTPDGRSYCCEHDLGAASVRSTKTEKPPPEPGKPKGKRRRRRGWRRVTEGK

Chain of Glycogen synthase kinase-3 beta (P49841 whole entry): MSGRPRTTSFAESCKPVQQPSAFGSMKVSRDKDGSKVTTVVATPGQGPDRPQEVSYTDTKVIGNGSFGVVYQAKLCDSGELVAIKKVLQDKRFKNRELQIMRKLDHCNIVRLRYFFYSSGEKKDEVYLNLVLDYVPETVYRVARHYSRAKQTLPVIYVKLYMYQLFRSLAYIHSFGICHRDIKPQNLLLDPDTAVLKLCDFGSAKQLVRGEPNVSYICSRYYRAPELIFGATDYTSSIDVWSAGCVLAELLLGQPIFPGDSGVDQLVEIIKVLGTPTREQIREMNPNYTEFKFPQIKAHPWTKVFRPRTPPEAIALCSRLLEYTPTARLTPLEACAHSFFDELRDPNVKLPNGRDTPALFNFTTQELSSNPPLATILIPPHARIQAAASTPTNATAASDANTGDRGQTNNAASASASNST
Chain of Casein kinase I isoform delta (P48730 whole entry, canonical isoform): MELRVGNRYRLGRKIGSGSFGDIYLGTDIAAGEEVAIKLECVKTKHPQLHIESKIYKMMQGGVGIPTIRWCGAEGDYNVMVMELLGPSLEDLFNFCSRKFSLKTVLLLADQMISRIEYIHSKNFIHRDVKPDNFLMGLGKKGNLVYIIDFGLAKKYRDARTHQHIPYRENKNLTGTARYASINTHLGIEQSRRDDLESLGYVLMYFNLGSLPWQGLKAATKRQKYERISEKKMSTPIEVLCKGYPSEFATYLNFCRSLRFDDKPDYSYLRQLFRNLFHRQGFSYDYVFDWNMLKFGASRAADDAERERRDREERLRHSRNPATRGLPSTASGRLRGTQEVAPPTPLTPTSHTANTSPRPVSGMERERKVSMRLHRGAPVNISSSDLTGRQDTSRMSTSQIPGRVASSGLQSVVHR
Chain of Delta-type opioid receptor (P41143 whole entry): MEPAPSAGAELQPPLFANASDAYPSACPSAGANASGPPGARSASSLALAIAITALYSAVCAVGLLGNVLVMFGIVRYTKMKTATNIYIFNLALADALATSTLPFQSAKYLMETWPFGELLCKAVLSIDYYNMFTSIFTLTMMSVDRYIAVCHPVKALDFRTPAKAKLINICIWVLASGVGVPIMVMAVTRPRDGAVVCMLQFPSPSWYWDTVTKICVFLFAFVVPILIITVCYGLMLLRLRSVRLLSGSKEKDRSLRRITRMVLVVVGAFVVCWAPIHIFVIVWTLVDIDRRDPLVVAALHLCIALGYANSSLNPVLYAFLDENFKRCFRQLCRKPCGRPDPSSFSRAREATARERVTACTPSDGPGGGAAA
Chain of Macrophage colony-stimulating factor 1 receptor (P07333 whole entry, canonical isoform): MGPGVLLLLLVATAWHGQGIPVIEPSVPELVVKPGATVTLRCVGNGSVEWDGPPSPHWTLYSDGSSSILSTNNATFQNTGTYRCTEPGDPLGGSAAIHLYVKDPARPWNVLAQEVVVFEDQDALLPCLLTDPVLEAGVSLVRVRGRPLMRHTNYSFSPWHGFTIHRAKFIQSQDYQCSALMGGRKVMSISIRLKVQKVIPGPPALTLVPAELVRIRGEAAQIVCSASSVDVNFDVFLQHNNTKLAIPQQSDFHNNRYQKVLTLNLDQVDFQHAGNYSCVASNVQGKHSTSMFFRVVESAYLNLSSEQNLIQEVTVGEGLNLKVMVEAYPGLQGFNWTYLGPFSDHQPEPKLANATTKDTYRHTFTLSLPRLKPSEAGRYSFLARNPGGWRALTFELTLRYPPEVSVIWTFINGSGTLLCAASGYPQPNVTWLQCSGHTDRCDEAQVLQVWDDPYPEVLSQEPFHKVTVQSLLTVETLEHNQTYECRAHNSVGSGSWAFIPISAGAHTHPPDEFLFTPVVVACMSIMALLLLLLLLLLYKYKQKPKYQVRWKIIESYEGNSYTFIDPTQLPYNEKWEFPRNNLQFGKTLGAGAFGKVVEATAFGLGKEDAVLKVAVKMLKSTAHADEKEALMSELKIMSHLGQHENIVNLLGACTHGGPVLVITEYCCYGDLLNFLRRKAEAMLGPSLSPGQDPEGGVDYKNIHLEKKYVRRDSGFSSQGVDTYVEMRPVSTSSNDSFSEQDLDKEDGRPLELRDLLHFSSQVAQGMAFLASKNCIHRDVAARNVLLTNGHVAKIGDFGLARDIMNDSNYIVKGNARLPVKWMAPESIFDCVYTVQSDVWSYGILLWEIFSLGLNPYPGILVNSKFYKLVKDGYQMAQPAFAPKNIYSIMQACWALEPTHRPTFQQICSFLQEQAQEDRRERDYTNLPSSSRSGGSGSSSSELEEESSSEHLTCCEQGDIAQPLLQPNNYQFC
Chain of Serine/threonine-protein kinase PAK 4 (O96013 whole entry): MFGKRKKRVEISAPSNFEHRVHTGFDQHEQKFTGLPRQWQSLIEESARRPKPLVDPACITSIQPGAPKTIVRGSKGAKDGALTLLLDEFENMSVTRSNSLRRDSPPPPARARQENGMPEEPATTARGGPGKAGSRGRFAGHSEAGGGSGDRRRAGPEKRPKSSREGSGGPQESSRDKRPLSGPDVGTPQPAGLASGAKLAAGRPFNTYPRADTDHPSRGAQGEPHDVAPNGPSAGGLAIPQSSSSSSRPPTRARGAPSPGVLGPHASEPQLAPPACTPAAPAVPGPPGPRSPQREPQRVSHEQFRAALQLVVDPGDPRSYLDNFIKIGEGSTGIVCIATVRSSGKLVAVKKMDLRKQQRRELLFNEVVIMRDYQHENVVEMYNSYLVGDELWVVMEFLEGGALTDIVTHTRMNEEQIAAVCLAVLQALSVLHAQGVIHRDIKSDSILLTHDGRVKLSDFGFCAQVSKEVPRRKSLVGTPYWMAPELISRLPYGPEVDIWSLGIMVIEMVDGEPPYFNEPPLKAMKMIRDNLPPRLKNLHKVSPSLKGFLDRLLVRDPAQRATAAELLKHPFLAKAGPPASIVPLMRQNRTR
Chain of Tyrosine-protein kinase JAK3 (P52333 whole entry): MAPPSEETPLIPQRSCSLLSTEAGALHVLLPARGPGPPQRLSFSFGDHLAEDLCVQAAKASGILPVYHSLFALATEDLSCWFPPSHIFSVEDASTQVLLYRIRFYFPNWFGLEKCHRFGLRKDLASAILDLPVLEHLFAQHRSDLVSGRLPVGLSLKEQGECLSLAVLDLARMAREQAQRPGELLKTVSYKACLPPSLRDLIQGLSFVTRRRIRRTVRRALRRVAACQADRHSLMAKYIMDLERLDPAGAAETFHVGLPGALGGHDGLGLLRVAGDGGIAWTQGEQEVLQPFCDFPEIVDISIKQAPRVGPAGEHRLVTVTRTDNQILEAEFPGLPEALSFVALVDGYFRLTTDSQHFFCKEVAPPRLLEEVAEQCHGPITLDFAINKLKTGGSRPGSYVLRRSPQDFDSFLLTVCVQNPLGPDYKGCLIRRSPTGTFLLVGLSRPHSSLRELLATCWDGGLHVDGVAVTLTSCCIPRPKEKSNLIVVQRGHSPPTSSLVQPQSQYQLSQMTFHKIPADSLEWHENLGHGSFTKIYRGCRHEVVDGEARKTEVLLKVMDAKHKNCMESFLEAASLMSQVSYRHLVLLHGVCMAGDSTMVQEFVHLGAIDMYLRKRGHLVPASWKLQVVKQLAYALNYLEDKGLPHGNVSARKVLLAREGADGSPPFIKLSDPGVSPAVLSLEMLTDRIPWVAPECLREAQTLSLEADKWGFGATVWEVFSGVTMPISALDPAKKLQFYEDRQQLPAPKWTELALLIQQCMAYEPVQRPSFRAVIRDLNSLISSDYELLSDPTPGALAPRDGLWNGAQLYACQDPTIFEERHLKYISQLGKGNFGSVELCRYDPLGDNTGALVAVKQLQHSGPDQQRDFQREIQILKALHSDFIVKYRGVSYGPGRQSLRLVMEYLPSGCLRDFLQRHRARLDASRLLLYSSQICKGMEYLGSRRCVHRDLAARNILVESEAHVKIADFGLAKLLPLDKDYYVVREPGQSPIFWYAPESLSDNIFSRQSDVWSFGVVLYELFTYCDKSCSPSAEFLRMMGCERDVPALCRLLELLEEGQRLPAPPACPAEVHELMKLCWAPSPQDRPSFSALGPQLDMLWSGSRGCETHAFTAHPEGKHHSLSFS
Chain of Tyrosine-protein kinase Srms (Q9H3Y6 whole entry): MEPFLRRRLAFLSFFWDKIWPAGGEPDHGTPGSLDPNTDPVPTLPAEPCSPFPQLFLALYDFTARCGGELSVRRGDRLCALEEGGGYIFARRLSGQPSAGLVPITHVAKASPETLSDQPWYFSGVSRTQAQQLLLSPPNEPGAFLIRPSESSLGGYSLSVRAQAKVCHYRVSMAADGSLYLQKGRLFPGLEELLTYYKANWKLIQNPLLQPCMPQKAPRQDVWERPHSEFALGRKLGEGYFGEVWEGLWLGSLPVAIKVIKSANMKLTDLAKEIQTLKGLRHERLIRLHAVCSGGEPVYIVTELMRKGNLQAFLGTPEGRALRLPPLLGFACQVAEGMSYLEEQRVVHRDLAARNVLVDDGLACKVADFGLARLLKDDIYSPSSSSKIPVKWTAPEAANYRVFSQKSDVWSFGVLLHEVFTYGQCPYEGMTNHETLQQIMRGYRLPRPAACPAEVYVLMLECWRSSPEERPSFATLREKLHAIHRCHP
Chain of Lymphokine-activated killer T-cell-originated protein kinase (Q96KB5 whole entry): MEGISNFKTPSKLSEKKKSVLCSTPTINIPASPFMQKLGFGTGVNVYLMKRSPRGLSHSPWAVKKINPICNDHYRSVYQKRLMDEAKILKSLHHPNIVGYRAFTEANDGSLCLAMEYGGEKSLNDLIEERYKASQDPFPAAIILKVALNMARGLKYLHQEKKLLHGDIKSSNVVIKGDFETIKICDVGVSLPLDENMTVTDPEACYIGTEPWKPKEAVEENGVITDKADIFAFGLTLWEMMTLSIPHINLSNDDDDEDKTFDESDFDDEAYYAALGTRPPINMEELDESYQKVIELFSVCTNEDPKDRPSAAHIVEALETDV

Question: For `Cc1cnc(NC(=O)c2sc3ccccc3c2Cl)s1`, which IC50 [1] is on record?
Answer: > 67.5 µM (inactive)

Question: And the IC50 [2]?
Answer: > 67.5 µM (inactive)

Question: Which Ki [3] does the source give for `O=C1NC(=S)SC1=C1C(=O)Nc2ccc(Br)cc21` here?
Answer: 7.94 µM (active)

Question: And the Ki [4]?
Answer: > 2.51 µM (inactive)

Question: And the Ki [5]?
Answer: 5.01 µM (active)

Question: What about the Ki [6] of the same compound?
Answer: > 1.58 µM (inactive)

Question: What about the Ki [7] of the same compound?
Answer: > 1.58 µM (inactive)

Question: What about the Ki [8] of the same compound?
Answer: 0.501 µM (active)

Question: What about the Ki [9] of the same compound?
Answer: > 5.01 µM (inactive)

Question: Which IC50 [10] does the source give for `Cc1ccc(Nc2cc(C)nn2-c2nc(C)cc(O)n2)cc1` here?
Answer: > 32 µM (inactive)

Question: For `O=C1C(O)=C/C(=N\c2ccccc2O)c2ccccc21`, which IC50 (HEK293) is on record?
Answer: > 20 µM (inactive)

Question: And the AC50 [11]?
Answer: 2.39 µM (active)
